Patent publication US12492173B2, “Herbicidal substituted N-tetrazolyl aryl carboxamides” (Bayer Aktiengesellschaft, priority 2019, dated 2025)

Columns and labels:
Format in all cases: in vivo
Digitaria sanguinalis [1] = experiment: Post-emergence herbicidal action, DIGSA; set-up: key: % herbicidal action: 100 = plants died, 0 = like control
Protocol: (§1) [table] 2. Post-Emergence Herbicidal Action Against Harmful Plants Seeds of monocotyledonous and dicotyledonous weed and crop plants are laid out in sandy loam soil in wood-fiber pots, covered with soil and cultivated in a greenhouse under good growth conditions. 2 to 3 weeks after sowing, the test plants are treated at the one-leaf stage. The compounds of the invention, formulated in the form of wettable powders (WP) or as emulsion concentrates (EC), are then sprayed onto the green parts of the plants in the form of an aqueous suspension or emulsion at a water application rate equating to 600 to 800 l/ha, with addition of 0.2% wetting agent. After the test plants have been left to stand in the greenhouse under optimal growth conditions for about 3 weeks, the action of the preparations is assessed visually in comparison to untreated controls (herbicidal action in percent (%): 100% activity=the plants have died, 0% activity=like control plants). […] The tables below illustrate, in an exemplary manner, the post-emergence herbicidal action of the compounds according to the invention, the herbicidal activity being stated in percent. In the experiments that follow, herbicidal action of numerous inventive compounds and the known compounds that are structurally closest from D1 (WO 2012/028579 A1) and D2 (WO 2018/202535 A1) were compared under the above-specified conditions by the pre-emergence and post-emergence method. The example numbers given in the tables relate to the compounds disclosed in the respective documents. In addition to the compounds disclosed in D1 and D2, the following compounds V-1 to V-14 that are encompassed by D1 or D2 but are not compounds specified therein were used in the comparative experiments: • V-1: 2-(methylsulfanyl)-3-(methylsulfinyl)-N-(1-methyl-1H-tetrazol-5-yl)-4-(trifluoromethyl)benzamide • V-2: 2-(methylsulfanyl)-3-(methylsulfonyl)-N-(1-methyl-1H-tetrazol-5-yl)-4-(trifluoromethyl)benzamide • V-3: 2,3-bis(ethylsulfanyl)-N-(1-methyl-1H-tetrazol-5-yl)-4-(trifluoromethyl)benzamide • V-4: 2-chloro-3-(ethylsulfanyl)-N-(1-methyl-1H-tetrazol-5-yl)-4-(trifluoromethyl)benzamide • V-5: 2-chloro-4-iodo-3-(methylsulfanyl)-N-(1-methyl-1H-tetrazol-5-yl)benzamide • V-6: 2-chloro-4-iodo-3-(methylsulfinyl)-N-(1-methyl-1H-tetrazol-5-yl)benzamide • V-7: 2-chloro-4-iodo-3-(methylsulfonyl)-N-(1-methyl-1H-tetrazol-5-yl)benzamide • V-8: 2-bromo-3-(methylsulfanyl)-N-(1-methyl-1H-tetrazol-5-yl)-4-(trifluoromethyl)benzamide • V-9: 2-bromo-3-(methylsulfinyl)-N-(1-methyl-1H-tetrazol-5-yl)-4-(trifluoromethyl)benzamide • V-10: 2-bromo-3-(methylsulfonyl)-N-(1-methyl-1H-tetrazol-5-yl)-4-(trifluoromethyl)benzamide • V-11: 2-bromo-3-(ethylsulfanyl)-N-(1-methyl-1H-tetrazol-5-yl)-4-(trifluoromethyl)benzamide • V-12: 2-bromo-3-(ethylsulfinyl)-N-(1-methyl-1H-tetrazol-5-yl)-4-(trifluoromethyl)benzamide • V-13: 2-bromo-3-(ethylsulfonyl)-N-(1-methyl-1-1H-tetrazol-5-yl)-4-(trifluoromethyl)benzamide • V-14: 2-cyclopropyl-3-(ethylsulfanyl)-N-(1-methyl-1H-tetrazol-5-yl)-4-(trifluoromethyl)benzamide Herbicidal Pre-Emergence Action: […]

Digitaria sanguinalis [2] = experiment: Pre-emergence herbicidal action, DIGSA; conditions: dosage 320 g/ha, scored visually after 3 weeks vs untreated controls (100% = plants have died)
Excerpt: 1. Pre-Emergence Herbicidal Action Against Harmful Plants Seeds of monocotyledonous and dicotyledonous weed plants and crop plants are laid out in sandy loam soil in wood-fiber pots and covered with soil. The compounds of the invention, formulated in the form of wettable powders (WP) or as emulsion concentrates (EC), are then applied to the surface of the covering soil in the form of an aqueous suspension or emulsion at a water application rate equating to 600 to 800 l/ha, with addition of 0.2% wetting agent. After the treatment, the pots are placed in a greenhouse and kept under good growth conditions for the trial plants. The damage to the test plants is scored visually after a test period of 3 weeks by comparison with untreated controls (herbicidal activity in percent (%): 100% activity=the plants have died, 0% activity=like control plants). […] The tables below illustrate, in an exemplary manner, the […] herbicidal action of the compounds according to the invention, the herbicidal activity being stated in percent. [table] In the experiments that follow, herbicidal action of numerous inventive compounds and the known compounds that are structurally closest from D1 (WO 2012/028579 A1) and D2 (WO 2018/202535 A1) were compared under the above-specified conditions by the pre-emergence and post-emergence method. The example numbers given in the tables relate to the compounds disclosed in the respective documents. In addition to the compounds disclosed in D1 and D2, the following compounds V-1 to V-14 that are encompassed by D1 or D2 but are not compounds specified therein were used in the comparative experiments: • V-1: 2-(methylsulfanyl)-3-(methylsulfinyl)-N-(1-methyl-1H-tetrazol-5-yl)-4-(trifluoromethyl)benzamide • V-2: 2-(methylsulfanyl)-3-(methylsulfonyl)-N-(1-methyl-1H-tetrazol-5-yl)-4-(trifluoromethyl)benzamide • V-3: 2,3-bis(ethylsulfanyl)-N-(1-methyl-1H-tetrazol-5-yl)-4-(trifluoromethyl)benzamide • V-4: 2-chloro-3-(ethylsulfanyl)-N-(1-methyl-1H-tetrazol-5-yl)-4-(trifluoromethyl)benzamide • V-5: 2-chloro-4-iodo-3-(methylsulfanyl)-N-(1-methyl-1H-tetrazol-5-yl)benzamide • V-6: 2-chloro-4-iodo-3-(methylsulfinyl)-N-(1-methyl-1H-tetrazol-5-yl)benzamide • V-7: 2-chloro-4-iodo-3-(methylsulfonyl)-N-(1-methyl-1H-tetrazol-5-yl)benzamide • V-8: 2-bromo-3-(methylsulfanyl)-N-(1-methyl-1H-tetrazol-5-yl)-4-(trifluoromethyl)benzamide • V-9: 2-bromo-3-(methylsulfinyl)-N-(1-methyl-1H-tetrazol-5-yl)-4-(trifluoromethyl)benzamide • V-10: 2-bromo-3-(methylsulfonyl)-N-(1-methyl-1H-tetrazol-5-yl)-4-(trifluoromethyl)benzamide • V-11: 2-bromo-3-(ethylsulfanyl)-N-(1-methyl-1H-tetrazol-5-yl)-4-(trifluoromethyl)benzamide • V-12: 2-bromo-3-(ethylsulfinyl)-N-(1-methyl-1H-tetrazol-5-yl)-4-(trifluoromethyl)benzamide • V-13: 2-bromo-3-(ethylsulfonyl)-N-(1-methyl-1-1H-tetrazol-5-yl)-4-(trifluoromethyl)benzamide • V-14: 2-cyclopropyl-3-(ethylsulfanyl)-N-(1-methyl-1H-tetrazol-5-yl)-4-(trifluoromethyl)benzamide Herbicidal Pre-Emergence Action: […]

Lolium multiflorum = experiment: Post-emergence herbicidal action, LOLMU; set-up: key: % herbicidal action: 100 = plants died, 0 = like control
Protocol: as §1

Hordeum murinum = experiment: Post-emergence herbicidal action, HORMU; set-up: key: % herbicidal action: 100 = plants died, 0 = like control
Protocol: as §1

Lolium rigidum = experiment: Post-emergence herbicidal action, LOLRI; conditions: dosage 80 g/ha
Protocol: as §1

Cyperus esculentus = experiment: Pre-emergence herbicidal action, CYPES; set-up: key: % activity: 100 = plants have died, 0 = like control plants; conditions: comparative experiment
In short: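 Pre-emergence, sandy loam soil; WP/EC formulation applied to covering soil surface, 600–800 l/ha water + 0.2% wetter; greenhouse, 3 wk; visual % damage vs untreated (0–100%).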

CCCn1nnnc1NC(=O)c1ccc(C(F)F)c(CS(C)(=O)=O)c1SC [Example 3-172]
herbicidal action DIGSA (Digitaria sanguinalis [1]; Dosage 80 g/ha): 90 | herbicidal activity DIGSA (Digitaria sanguinalis [2]): 100%

CCn1nnnc1NC(=O)c1ccc(C(F)(F)F)c(C[S+]([O-])CC)c1Br (centres unmarked) [Example 2-384]
herbicidal action LOLMU (Lolium multiflorum; post-emergence, dosage 80 g/ha): 80%

CCSCc1c(C(F)(F)F)ccc(C(=O)Nc2nnnn2CC)c1C [Example 2-86]
herbicidal action LOLMU (Lolium multiflorum; post-emergence, dosage 80 g/ha): 90%

CSc1c(C(=O)Nc2nnnn2C)ccc(C(F)F)c1C[S+](C)[O-] (centres unmarked) [Example 1-171]
herbicidal action DIGSA (Digitaria sanguinalis [1]; Dosage 80 g/ha): 100 | herbicidal activity DIGSA (Digitaria sanguinalis [2]): 100%

COCC[S+]([O-])Cc1c(C(F)(F)F)ccc(C(=O)Nc2nnnn2C)c1Cl (racemic) [Example 1-306]
herbicidal action DIGSA (Digitaria sanguinalis [1]; Dosage 80 g/ha): 100 | herbicidal activity DIGSA (Digitaria sanguinalis [2]): 100%

Cn1nnnc1NC(=O)c1ccc(C(F)F)c(CS(C)(=O)=O)c1Cl [Example 1-322]
herbicidal action LOLMU (Lolium multiflorum; post-emergence, dosage 80 g/ha): 90%

CCn1nnnc1NC(=O)c1ccc(C(F)(F)F)c(CSC)c1Cl [Example 2-296]
herbicidal action LOLMU (Lolium multiflorum; post-emergence, dosage 80 g/ha): 90%

CSCc1c(Cl)ccc(C(=O)Nc2nnnn2C)c1Cl [Example 1-559]
herbicidal action LOLMU (Lolium multiflorum; post-emergence, dosage 80 g/ha): 100%

CCCn1nnnc1NC(=O)c1ccc(C(F)F)c(C[S+](C)[O-])c1SC (centres unmarked) [Example 3-171]
herbicidal action DIGSA (Digitaria sanguinalis [1]; Dosage 80 g/ha): 90 | herbicidal activity DIGSA (Digitaria sanguinalis [2]): 100%

Cn1nnnc1NC(=O)c1ccc(C(F)(F)F)c(C[S+]([O-])C2CC2)c1Cl (racemic) [Example 1-303]
herbicidal action HORMU (Hordeum murinum; post-emergence, dosage 80 g/ha): 100% | herbicidal action LOLRI (Lolium rigidum): 90%

CCn1nnnc1NC(=O)c1ccc(I)c(C[S+](C)[O-])c1Cl (centres unmarked) [Example 2-363]
herbicidal action HORMU (Hordeum murinum; Dosage 80 g/ha): 90

Cn1nnnc1NC(=O)c1ccc(C(F)(F)F)c(CS(=O)(=O)C2CC2)c1Cl [Example 1-304]
herbicidal action HORMU (Hordeum murinum; post-emergence, dosage 80 g/ha): 80% | herbicidal action LOLRI (Lolium rigidum): 80%

Cn1nnnc1NC(=O)c1ccc(C(F)(F)F)c(CSCC(F)(F)F)c1Cl [Example 1-311]
herbicidal action HORMU (Hordeum murinum; Dosage 80 g/ha): 100

Cn1nnnc1NC(=O)c1ccc(I)c(CS(C)(=O)=O)c1Cl [Example 1-364]
herbicidal action DIGSA (Digitaria sanguinalis [1]; Dosage 80 g/ha): 100 | herbicidal activity DIGSA (Digitaria sanguinalis [2]): 100%

CCCn1nnnc1NC(=O)c1ccc(C(F)(F)F)c(CSCC2CC2)c1Cl [Example 3-314]
herbicidal action HORMU (Hordeum murinum; post-emergence, dosage 80 g/ha): 90%

CCn1nnnc1NC(=O)c1ccc(C(F)F)c(CS(C)(=O)=O)c1Cl [Example 2-322]
herbicidal action LOLMU (Lolium multiflorum; post-emergence, dosage 80 g/ha): 80%

CCCn1nnnc1NC(=O)c1ccc(C(F)(F)F)c(CS(C)(=O)=O)c1SC [Example 3-163]
herbicidal action HORMU (Hordeum murinum; Dosage 80 g/ha): 80

CCn1nnnc1NC(=O)c1ccc(C(F)(F)F)c(C[S+]([O-])CC2CC2)c1Cl (centres unmarked) [Example 2-315]
herbicidal action DIGSA (Digitaria sanguinalis [1]; Dosage 80 g/ha): 100 | herbicidal activity DIGSA (Digitaria sanguinalis [2]): 100%

Cn1nnnc1NC(=O)c1ccc(C(F)(F)F)c(CS(=O)(=O)CC2CC2)c1Cl [Example 1-316]
herbicidal action DIGSA (Digitaria sanguinalis [1]; Dosage 80 g/ha): 100 | herbicidal activity DIGSA (Digitaria sanguinalis [2]): 100%

Cn1nnnc1NC(=O)c1ccc(C(F)(F)F)c(CS(C)(=O)=O)c1C(F)(F)C(F)(F)F [Example 1-552]
herbicidal action DIGSA (Digitaria sanguinalis [1]; Dosage 80 g/ha): 90 | herbicidal activity DIGSA (Digitaria sanguinalis [2]): 100%

CCn1nnnc1NC(=O)c1ccc(C(F)F)c(CSC)c1Cl [Example 2-320]
herbicidal action LOLMU (Lolium multiflorum; Dosage 80 g/ha): 80

CSCc1c(C(F)(F)F)ccc(C(=O)Nc2nnnn2C)c1C [Example 1-83]
herbicidal action LOLMU (Lolium multiflorum; post-emergence, dosage 80 g/ha): 80%

CCCn1nnnc1NC(=O)c1ccc(C(F)F)c(CSC)c1SC [Example 3-170]
herbicidal action DIGSA (Digitaria sanguinalis [1]; Dosage 80 g/ha): 100 | herbicidal activity DIGSA (Digitaria sanguinalis [2]): 100%

CCn1nnnc1NC(=O)c1ccc(C(F)F)c(C[S+](C)[O-])c1SC (centres unmarked) [Example 2-171]
herbicidal action DIGSA (Digitaria sanguinalis [1]; Dosage 80 g/ha): 90 | herbicidal activity DIGSA (Digitaria sanguinalis [2]): 100%

CCSCc1c(C(F)F)ccc(C(=O)Nc2nnnn2C)c1Cl [Example 1-323]
herbicidal action LOLMU (Lolium multiflorum; post-emergence, dosage 80 g/ha): 90%

CCn1nnnc1NC(=O)c1ccc(C(F)F)c(CSC)c1SC [Example 2-170]
herbicidal action DIGSA (Digitaria sanguinalis [1]; Dosage 80 g/ha): 100 | herbicidal activity DIGSA (Digitaria sanguinalis [2]): 100%

CCn1nnnc1NC(=O)c1ccc(C(F)(F)F)c(C[S+](C)[O-])c1Cl (centres unmarked) [Example 2-297]
herbicidal action LOLMU (Lolium multiflorum; post-emergence, dosage 80 g/ha): 90%

CCSCc1c(C(F)(F)F)ccc(C(=O)Nc2nnnn2C)c1Br [Example 1-383]
Herbicidal action against CYPES (Cyperus esculentus; 80 g of a.i./ha): 100 | herbicidal action LOLMU (Lolium multiflorum; post-emergence, dosage 80 g/ha): 90%

CCSCc1c(C(F)(F)F)ccc(C(=O)Nc2nnnn2CC)c1Cl [Example 2-299]
herbicidal action LOLMU (Lolium multiflorum; post-emergence, dosage 80 g/ha): 90%

CCCn1nnnc1NC(=O)c1ccc(C(F)(F)F)c(CSCC(F)(F)F)c1Cl [Example 3-311]
herbicidal action HORMU (Hordeum murinum; Dosage 80 g/ha): 90

Cn1nnnc1NC(=O)c1ccc(C(F)(F)F)c(C[S+]([O-])CC(F)(F)F)c1Cl (racemic) [Example 1-312]
herbicidal action HORMU (Hordeum murinum; post-emergence, dosage 80 g/ha): 80% | herbicidal action DIGSA (Digitaria sanguinalis [1]; post-emergence, dosage 80 g/ha): 100% | herbicidal activity DIGSA (Digitaria sanguinalis [2]): 100%

CCCn1nnnc1NC(=O)c1ccc(C(F)F)c(CS(=O)(=O)CC)c1Cl [Example 3-325]
herbicidal action HORMU (Hordeum murinum; Dosage 80 g/ha): 90

CCS(=O)(=O)Cc1c(C(F)F)ccc(C(=O)Nc2nnnn2C)c1Cl [Example 1-325]
herbicidal action LOLMU (Lolium multiflorum; Dosage 80 g/ha): 90

CCn1nnnc1NC(=O)c1ccc(C(F)(F)F)c(CSCC(F)(F)F)c1Cl [Example 2-311]
herbicidal action HORMU (Hordeum murinum; Dosage 80 g/ha): 80

CCn1nnnc1NC(=O)c1ccc(C(F)F)c(C[S+]([O-])CC)c1Cl (centres unmarked) [Example 2-324]
herbicidal action HORMU (Hordeum murinum; post-emergence, dosage 80 g/ha): 90% | herbicidal action DIGSA (Digitaria sanguinalis [1]; post-emergence, dosage 80 g/ha): 100% | herbicidal activity DIGSA (Digitaria sanguinalis [2]): 100%

CSCc1c(C(F)F)ccc(C(=O)Nc2nnnn2C)c1Cl [Example 1-320]
Herbicidal action against CYPES (Cyperus esculentus; 20 g of a.i./ha): 80 | herbicidal action LOLMU (Lolium multiflorum; Dosage 80 g/ha): 80

CCSCc1c(C(F)F)ccc(C(=O)Nc2nnnn2CC)c1Cl [Example 2-323]
herbicidal action LOLMU (Lolium multiflorum; post-emergence, dosage 80 g/ha): 80%
